Laboratory results reported in ChEMBL document CHEMBL3046091, “Synthesis and antimicrobial activities of 2-azetidinyl-4-quinazolinone derivatives of diclofenac analogue” (2011).

Legend:
Format in all cases: functional
Pseudomonas aeruginosa [1] = test: Antibacterial activity against Pseudomonas aeruginosa ATCC 9027 at 50 ug/ml by cup-plate method; settings: read-out: IZ
Pseudomonas aeruginosa [2] = test: Antibacterial activity against Pseudomonas aeruginosa ATCC 9027 at 50 to 100 ug/ml by cup-plate method
Pseudomonas aeruginosa [3] = test: Antibacterial activity against Pseudomonas aeruginosa ATCC 9027 at 100 ug/ml by cup-plate method; settings: read-out: IZ
Bacillus subtilis [4] = test: Antibacterial activity against Bacillus subtilis ATCC 6633 at 50 ug/ml by cup-plate method; settings: read-out: IZ
Bacillus subtilis [5] = test: Antibacterial activity against Bacillus subtilis ATCC 6633 at 50 to 100 ug/ml by cup-plate method
Bacillus subtilis [6] = test: Antibacterial activity against Bacillus subtilis ATCC 6633 at 100 ug/ml by cup-plate method; settings: read-out: IZ
Staphylococcus aureus [7] = test: Antibacterial activity against Staphylococcus aureus ATCC 9144 at 50 to 100 ug/ml by cup-plate method
Staphylococcus aureus [8] = test: Antibacterial activity against Staphylococcus aureus ATCC 9144 at 50 ug/ml by cup-plate method; settings: read-out: IZ
Staphylococcus aureus [9] = test: Antibacterial activity against Staphylococcus aureus ATCC 9144 at 100 ug/ml by cup-plate method; settings: read-out: IZ
Candida albicans [10] = test: Antifungal activity against Candida albicans ATCC 10231 at 100 ug/ml by cup-plate method; settings: read-out: IZ
Candida albicans [11] = test: Antifungal activity against Candida albicans ATCC 10231 at 50 ug/ml by cup-plate method; settings: read-out: IZ
Escherichia coli [12] = test: Antibacterial activity against Escherichia coli ATCC 25922 at 50 ug/ml by cup-plate method; settings: read-out: IZ
Escherichia coli [13] = test: Antibacterial activity against Escherichia coli ATCC 25922 at 50 to 100 ug/ml by cup-plate method
Escherichia coli [14] = test: Antibacterial activity against Escherichia coli ATCC 25922 at 100 ug/ml by cup-plate method; settings: read-out: IZ

| Compound | zone of inhibition at 50 µg/mL (Pseudomonas aeruginosa [1]) [mm] | Activity (Pseudomonas aeruginosa [2]) [%] | zone of inhibition at 100 µg/mL (Pseudomonas aeruginosa [3]) [mm] | zone of inhibition at 50 µg/mL (Bacillus subtilis [4]) [mm] | Activity (Bacillus subtilis [5]) [%] | zone of inhibition at 100 µg/mL (Bacillus subtilis [6]) [mm] | Activity (Staphylococcus aureus [7]) [%] | zone of inhibition at 50 µg/mL (Staphylococcus aureus [8]) [mm] | zone of inhibition at 100 µg/mL (Staphylococcus aureus [9]) [mm] | zone of inhibition at 100 µg/mL (Candida albicans [10]) [mm] | zone of inhibition at 50 µg/mL (Candida albicans [11]) [mm] | zone of inhibition at 50 µg/mL (Escherichia coli [12]) [mm] | Activity (Escherichia coli [13]) [%] | zone of inhibition at 100 µg/mL (Escherichia coli [14]) [mm] |
| --- | --- | --- | --- | --- | --- | --- | --- | --- | --- | --- | --- | --- | --- | --- |
| O=c1c2cc(Br)ccc2nc(Cc2ccccc2Nc2c(Cl)cccc2Cl)n1-c1ccc(/N=C/c2ccccc2O)cc1 | 2 | 38.83 | 4 | 3 | 36 | 5 | 42.87 | 3 | 5 | 1 | 0 | 3 | 36.74 | 5 |
| CCN(CC)c1ccc(/C=N/c2ccc(-n3c(Cc4ccccc4Nc4c(Cl)cccc4Cl)nc4ccc(Br)cc4c3=O)cc2)c(O)c1 | 0 | 0 | 0 | 0 | 0 | 0 | 0 | 0 | 0 | 0 | 0 | 0 | 0 | 0 |
| O=C1C(Cl)C(c2ccccc2[N+](=O)[O-])N1c1ccc(-n2c(Cc3ccccc3Nc3c(Cl)cccc3Cl)nc3ccc(Br)cc3c2=O)cc1 (stereo not drawn) | 3 | 46.93 | 6 | 3 | 42.68 | 6 | 36.75 | 2 | 4 | 2 | 1 | 3 | 37.56 | 5 |
| O=c1c2cc(Br)ccc2nc(Cc2ccccc2Nc2c(Cl)cccc2Cl)n1-c1ccc(/N=C/c2cccc([N+](=O)[O-])c2)cc1 | 1 | 33.92 | 3 | 2 | 24.99 | 3 | 29.73 | 1 | 3 | 2 | 1 | 1 | 28.39 | 3 |
| O=c1c2cc(Br)ccc2nc(Cc2ccccc2Nc2c(Cl)cccc2Cl)n1-c1ccc(/N=C/c2ccc(O)cc2)cc1 | 2 | 44.55 | 5 | 2 | 30.5 | 4 | 34.85 | 3 | 4 | 1 | 0 | 2 | 31.5 | 4 |
| O=c1c2cc(Br)ccc2nc(Cc2ccccc2Nc2c(Cl)cccc2Cl)n1-c1ccc(/N=C/c2ccccc2Cl)cc1 | 3 | 44.44 | 5 | 3 | 42.68 | 6 | 50.98 | 3 | 6 | 2 | 1 | 3 | 37.56 | 5 |
| O=c1c2cc(Br)ccc2nc(Cc2ccccc2Nc2c(Cl)cccc2Cl)n1-c1ccc(/N=C/c2ccc(Cl)cc2)cc1 | 3 | 46.93 | 6 | 5 | 59.79 | 9 | 50.88 | 4 | 6 | 4 | 2 | 5 | 49.68 | 7 |
| COc1ccc(/C=N/c2ccc(-n3c(Cc4ccccc4Nc4c(Cl)cccc4Cl)nc4ccc(Br)cc4c3=O)cc2)cc1 | 3 | 52.88 | 6 | 5 | 63.91 | 9 | 53.85 | 4 | 7 | 3 | 2 | 5 | 64.33 | 9 |
| COc1cc(/C=N/c2ccc(-n3c(Cc4ccccc4Nc4c(Cl)cccc4Cl)nc4ccc(Br)cc4c3=O)cc2)cc(OC)c1OC | 2 | 47.09 | 5 | 4 | 53.33 | 8 | 50.98 | 3 | 6 | 2 | 1 | 4 | 50 | 7 |
| COc1ccc(/C=N/c2ccc(-n3c(Cc4ccccc4Nc4c(Cl)cccc4Cl)nc4ccc(Br)cc4c3=O)cc2)c(O)c1 | 2 | 38.83 | 4 | 4 | 47.81 | 7 | 50 | 4 | 6 | 0 | 0 | 4 | 42.86 | 6 |
| CN(C)c1ccc(/C=N/c2ccc(-n3c(Cc4ccccc4Nc4c(Cl)cccc4Cl)nc4ccc(Br)cc4c3=O)cc2)cc1 | 0 | 0 | 0 | 0 | 0 | 0 | 0 | 0 | 0 | 1 | 0 | 0 | 0 | 0 |
| O=c1c2cc(Br)ccc2nc(Cc2ccccc2Nc2c(Cl)cccc2Cl)n1-c1ccc(/N=C/c2ccccc2[N+](=O)[O-])cc1 | 2 | 35.33 | 4 | 3 | 36 | 5 | 28.43 | 2 | 3 | 2 | 1 | 2 | 32.65 | 4 |
